Earlier results on 7 compounds are cited in patent US7767881B2, “Utilization of histamine receptor h3 gene participating in body weight or food intake control” (priority 2001, dated 2010).

The conditions of data set [1]: experimental epilepsy model.
The subject of data set [2] is mice.
The test system of data set [3] is mice. This is another data set of the same source.
Data set [4] has as its system senescence-accelerated mice. The settings on record: senescence-accelerated mice with learning disabilities.
Data set [5] has as its system mice. The source holds these as a separate data set.

With `CCCN(CCC)C1CCc2cccc(O)c2C1` (centres unmarked) [8-OH-DPAT], the “histamine neuron metabolic turnover” value in the data set on histamine neuron is listed as “reduce histamine neuron metabolic turnover”.
Regarding `NC(=NCc1ccc(Cl)cc1)SCCCc1cnc[nH]1` [Clobenpropit], in data set [1], the electroconvulsion result was “suppressed”.
Turning to `C[C@@H](N)Cc1c[nH]cn1` [RAMH, R-α-methylhistamine], the voluntary movement result in the data set on rats and in the data set with mice [2] was “decreases voluntary movement” each time. For the same compound, the deep slow-wave sleep entry with cats (administration of the agonist) is given as “significant increase in deep slow-wave sleep”.
In the case of `O=C1CC2(CCCC2)CC(=O)N1CCCCN1CCN(c2ncccn2)CC1` [buspirone], the “histamine neuron metabolic turnover” value in the data set on histamine neuron is given as “reduce histamine neuron metabolic turnover”.
In the case of `Clc1cccc(Cl)c1NC1=NCCN1` [clinidine], in the data set on histamine neuron, the “histamine neuron metabolic turnover” value is reported as “reduce histamine neuron metabolic turnover”.
Consider `NCCc1c[nH]cn1` [histamine], for which the analgesic/algesic action entry in the data set on mice [3] (mice, intracerebral administration) is “analgesic and/or algesic action, depending on the dose”.
With `S=C(NC1CCCCC1)N1CCC(c2cnc[nH]2)CC1` [thioperamide], the analgesia result in the data set on mice [3] (due to stimulation of the histamine receptor H1 protein, antagonized by RAMH) is “attenuation of analgesia”. Further, in data set [4], the learning result was “improving learning”. In data set [1], the electroconvulsion entry was “suppressed”. For the same compound, the waking entry with cats (effect antagonized by RAMH) was “waking effects were observed”. Also, the “effect on RAMH-induced increase in deep slow-wave sleep” value with cats (given against RAMH) is reported as “reversed”. In the data set on mice [5], the anxiety entry is reported as “anxiety-inducing effects”.
